Source: US20240043528A1, “NANOBODY-OGA FUSIONS AND USES THEREOF” (President and Fellows of Harvard College, priority 2020, published 2024)

Legend:
Assay type in all cases: cell-based, human
global O-GlcNAcylation = assay: Global O-GlcNAcylation level in whole cell lysate, anti-O-GlcNAc (RL2) immunoblot; conditions: HEK 293T whole cell lysate, OSMI-4b 25 μM for 30 h
Experimental: After 36-48 h of transfection, cells were harvested and washed with PBS once. Cells were lysed with M-PER lysis buffer containing 1× protease inhibitor cocktail and 10 μM Thiamet-G unless otherwise noted. Protein concentrations were determined by the BCA assay kit (G-Biosciences, 786) on a multi-mode microplate reader FilterMax F3 (Molecular Devices LLC, Sunnyvale, CA).
For immunoblotting analysis, proteins were transferred to a nitrocellulose membrane using iBlot (Thermo Scientific). Membranes were blocked with Tris buffered saline containing 0.1% Tween-20 and 5% BSA and incubated with the primary antibodies (1:1000 dilution) and the secondary antibodies (1:10,000 dilution) sequentially. Immunoblot images were captured by Azure Imager C600. Analysis of immunoblots was conducted with Fiji ImageJ. All IR fluorescence western blot images are converted into grayscale images by Fiji ImageJ. The unsaturated exposure of immunoblot images was used for quantification with the appropriate loading controls as standards. Statistical analysis of the data was performed with Prism 8, using data from at least three independent experiments.

c-Fos-Ubc-Flag-EPEA = assay: Deglycosylation of c-Fos-Ubc-Flag-EPEA (anti-EPEA enrichment, anti-O-GlcNAc immunoblot); conditions: HEK 293T cells
Experimental: For immunoprecipitation of proteins with the C-terminal EPEA tag, cell lysates with equal amounts of protein were diluted with PBS and incubated with C-tag affinity matrix (Thermo Scientific) for 1 h at room temperature, with end-to-end rotation, following the manufacturer's instructions. After washing three times with PBS buffer, the enriched proteins were eluted with SDS sample buffer and subjected to SDS-PAGE.
For immunoblotting analysis, proteins were transferred to a nitrocellulose membrane using iBlot (Thermo Scientific). […] All IR fluorescence western blot images are converted into grayscale images by Fiji ImageJ. The unsaturated exposure of immunoblot images was used for quantification with the appropriate loading controls as standards. […]
The ability of nUbc-split OGA to selectively remove an O-GlcNAc modification from Ubc-tagged c-Fos was examined. c-Fos is a core component of the AP-1 transcription factor complex, which will dimerize with c-Jun and drive downstream transcription (Hess, J., Angel, P. & Schorpp-Kistner, M. AP-1 subunits: quarrel and harmony among siblings. J. Cell Sci. 2004, 117, 5965-73). […] The O-GlcNAc modification level was evaluated by immunoblotting with an anti-O-GlcNAc antibody (FIG. 4C). Ratios were quantified from the protein level and O-GlcNAc level.

[1] = tested on: AP-1 transcriptional activity; assay: AP-1 responsive luciferase reporter assay in c-Fos-Ubc co-transfected HEK 293T cells; conditions: c-Fos-Ubc-Flag-EPEA co-transfected HEK 293T cells, 48 h; OSMI-4b 25 μM
Experimental: For luciferase assay in the OGT inhibition experiment, HEK 293T cells co-transfected with c-Fos-Ubc-Flag-EPEA plasmid and AP-1 responsive luciferase reporter were treated with either DMSO or 25 μM OSMI-4b for 48 h before luciferase activity detection. […] Luciferase reporter assays were performed using Luciferase Assay System (Promega, E1500) according to manufacturer's protocols. At least three independent biological replicates were run using this assay.

endogenous c-Jun = assay: O-GlcNAcylation status of endogenous c-Jun (chemoenzymatic labeling, Biotin-IP); conditions: HEK 293T cells expressing c-Fos-Ubc
Experimental: Purification of GalT1 (Y289L) enzyme and labeling of O-GlcNAcylated proteins with GalNAz were performed according to the procedure of Hsieh-Wilson and co-workers (Thompson, J. W., Griffin, M. E. & Hsieh-Wilson, L. C. Methods for the Detection, Study, and Dynamic Profiling of O-GlcNAc Glycosylation. Methods Enzymol. 2018, 598, 101-135). Briefly, cell samples in 6-well plates or 15-cm dishes were harvested and washed by PBS once. The lysis buffer (PBS with 2% SDS) was added into cell pellets and heated for 5 min at 95° C., followed by the sonication to sheer DNA. Protein concentrations were determined by BCA assay. Cell lysates were reduced and alkylated with 25 mM DTT at 95° C. for 5 min and 50 mM iodoacetamide at room temperature for 1 h respectively. Proteins were precipitated by the methanol/chloroform solution (aqueous phase:CH3OH:CHCl3=4:4:1) and resuspended in 1% SDS, 20 mM HEPES (pH 7.9) buffer with a concentration of 3.75 mg/mL. For 150 μg proteins, H2O (49 μL), 2.5×GalT labeling buffer (80 μL, final concentrations: 50 mM NaCl, 20 mM HEPES, 2% NP-40, pH 7.9), 100 mM MnCl2 (11 μL), 500 μM UDP-GalNAz (10 μL), 2 mg/mL GalT1 (Y289L) (10 μL) were added into cell lysates orderly. The reaction was gently rotated at 4° C. for at least 20 h and the proteins were precipitated as described above. The proteins were resuspended with 1% SDS, PBS for the further click chemistry. […]

## OSMI-4b
Global O-GlcNAcylation
  global O-GlcNAcylation level: dramatic reduction of global O-GlcNAcylation level
Global O-GlcNAcylation; listed as OSMI-4b9
  global O-GlcNAcylation level: dramatic reduction
c-Fos-Ubc-Flag-EPEA
  O-GlcNAc modification level on c-Fos-Ubc: deglycosylated
[1]
  AP-1 transcriptional activity (luciferase): significantly upregulated
Endogenous c-Jun
  O-GlcNAc modification on endogenous c-Jun: reduced O-GlcNAc modification
